Data set [1] relates to A. baumannii 1650. Briefly: MIC assay, strain 1650. The format is cell-based, Acinetobacter baumannii. Particulars: Acinetobacter baumannii, strain 1650. Here is the method: (§1) MIC and MBC assays were performed in this study as documented by us previously.^17,23,24,25 The A. baumannii strains used are detailed in Table 7.
Data set [2] has as its system A. baumannii 1649. Briefly: MIC assay, strain 1649. The format is cell-based, Acinetobacter baumannii. Particulars: Acinetobacter baumannii, strain 1649. The method, then: as §1
Data set [3] concerns A. baumannii dihydrofolate reductase (DHFR) enzyme. Put plainly: tetrahydrofolic acid in vitro rescue assay. The format is cell-based. Particulars: tetrahydrofolic acid 0-225 μM; 24 hours incubation.
Protocol: To evaluate the effect quinazolines have on DHFR reduction of dihydrofolic acid, a tetrahydrofolic acid assay was performed as described by us previously.^17 A. baumannii strain 1403 was grown overnight in LB, and then diluted 1:1000 into fresh media. These cultures were then seeded into a sterile 96-well plate with tetrahydrofolic acid added at concentrations ranging from 0 to 225 μM. […] MICs were determined and used to assess whether the addition of tetrahydrofolic acid rescued A. baumannii growth from quinazoline inhibition. Assays were repeated in triplicate, alongside trimethoprim and sulfamethoxazole controls.
Data set [4] concerns A. baumannii 1646. Put plainly: minimal bactericidal concentration (MBC) assay, strain 1646. The format is cell-based, Acinetobacter baumannii. In outline:
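MBC90 determined against A. baumannii clinical isolates to distinguish bactericidal from bacteriostatic activity, following the group's previously published MIC/MBC protocol.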

For data set [5], the system named is A. baumannii 1652. Briefly: MIC assay, strain 1652. As to conditions: Acinetobacter baumannii, strain 1652. The format is cell-based, Acinetobacter baumannii. Here is the method:
as §1

The test system of data set [6] is A. baumannii 1651. Briefly: MIC assay, strain 1651. The format is cell-based, Acinetobacter baumannii. As to conditions: Acinetobacter baumannii, strain 1651. The method, then:
as §1

Data set [7] relates to A. baumannii 1403. Put plainly: MIC assay, strain 1403. The format is cell-based, Acinetobacter baumannii. As to conditions: Acinetobacter baumannii, strain 1403. Here is the method:
as §1

Data set [8] has as its system A. baumannii 1646. Put plainly: MIC assay, strain 1646. Particulars: Acinetobacter baumannii. The format is cell-based, Acinetobacter baumannii. Here is the method: as §1
Data set [9] deals with A. baumannii 1646. Put plainly: murine model of lethal peritonitis. The format is in vivo, mice. As to conditions: 30 mg kg^-1 intraperitoneal, one hour post challenge, 5 days. Here is the method:
As a final assessment, we used a murine model of lethal A. baumannii infection to determine the efficacy of quinazolines in vivo. This was performed using frontrunner 5, which had the most promising properties from all of our biological testing. Accordingly, mice were inoculated with a lethal dose of A. baumannii via intraperitoneal injection on the right side of the abdomen. One hour post challenge, mice were treated with an intraperitoneal injection of 2 mg kg^−1 of frontrunner 5 on the left side of the abdomen. As a control, we also performed similar testing using 30 mg kg^−1 of tigecycline, which we already know our test strain to be susceptible to in vitro.
Characteristics of pre-moribund state include: hunched posture, rapid, shallow and/or labored breathing, ruffled fur, lethargy, failure to respond to stimuli, soiled anogenital area, paralysis, paresis, head tilt, circling, vocalizations, non-purposeful movements, and/or were unable to eat or drink. Those mice reaching this state prior to the completion of the 5-day infection period were euthanized. The number of mice surviving between control and treatment groups was compared and analyzed for statistical significance using a log-rank (Mantel-Cox) test.

The subject of data set [10] is A. baumannii 1652. Briefly: minimal bactericidal concentration (MBC) assay, strain 1652. The format is cell-based. Particulars: Acinetobacter baumannii, Table 8, read-out: MBC90 1652.
Source text: (§2) Lead quinazolines 4, 5, 26, 29, 27, and 30 were selected to be further evaluated for antimicrobial effects. The first assay utilized was a minimal bactericidal concentration (MBC) assay, to assess whether leads compounds were bacteriostatic or bactericidal. The six lead agents were screened to identify their MBC90 towards each of the six A. baumannii isolates used in the SAR studies (Table 8), however for simplicity only the representative data for isolate 1646 is detailed below (Table 6). […] Further to this, we were able to obtain complete eradication of bacterial growth for these two compounds at 1 μM for 24 and 5 μM for 25.
as §1

Another data set has as its system human HepG2 cells. The format is cell-based. Here is the method: Cytotoxicity assays were performed using human HepG2 cells (human liver epithelial with hepatocellular carcinoma), as described by us previously.^17,24 Cells were cultured in Dulbecco's modified eagle medium (DMEM), supplemented with 10% fetal bovine serum and 1% penicillin-streptomycin for 3 days at 37° C. and 5% CO2. Cells were then diluted to 1×10^5 ml^−1 using fresh DMEM and added to 96 well tissue culture plates at a volume of 100 μL. Plates were incubated for 24 hours at 37° C. and 5% CO2, allowing the cells to adhere to the plastic. […] Plates were then incubated for 48 hours at 37° C. and 5% CO2. After 48 hours the DMEM was removed and 100 μL of new media was added containing MTT (3-(4, 5-dimethylthiazol-2-yl)-2, 5-diphenyltetrazolium bromide), followed by incubation for four hours at 37° C. and 5% CO2. […] Lead compounds were solvated in 100% DMSO for these studies, which served as the negative control. LD50 values were determined for each compound by comparison to vehicle only controls.

Data set [11] has as its system A. baumannii 1650 biofilm. Put plainly: biofilm eradication determination assay, strain 1650. The format is cell-based, Acinetobacter baumannii. As to conditions: 90% biofilm eradication, Table 8. The method, then: (§3) These assays were performed as described by us previously,^26,24 as follows. Each of the A. baumannii strains were grown overnight in Mueller Hinton Broth (MHB). The next day these were used to seed fresh MHB to an OD600 of 0.5, with 150 μL then added to the wells of a 96 well plate and grown for 24 hours at 37° C. After 24 hours, the planktonic bacteria were carefully removed and fresh MHB was added with increasing concentrations of lead quinazolines. After incubation at 37° C. for 24 hours, planktonic cells were removed and biofilms were washed three times with phosphate buffered saline (PBS). Biofilms were then resuspended in PBS and plated for cell viability on tryptic soy agar. Biofilm recovery was assessed compared to no drug controls, and determined as percent eradication. This was used to determine MBEC90 values (Minimal Biofilm Eradication Concentration), where the viability of cells within the biofilm was reduced by 90%.

For data set [12], the system named is A. baumannii 1403 biofilm. Briefly: biofilm eradication determination assay, strain 1403. The format is cell-based, Acinetobacter baumannii. Particulars: 90% biofilm eradication, Table 8. The method, then: as §3
Data set [13] deals with A. baumannii 1646 biofilm. Briefly: biofilm eradication determination assay, strain 1646. The format is cell-based, Acinetobacter baumannii. The method, then:
as §3

The subject of data set [14] is A. baumannii 1649 biofilm. Put plainly: biofilm eradication determination assay, strain 1649. The format is cell-based, Acinetobacter baumannii. As to conditions: 90% biofilm eradication, Table 8. Here is the method:
as §3

In data set [15] the test system is A. baumannii 1649. Briefly: minimal bactericidal concentration (MBC) assay, strain 1649. Particulars: Acinetobacter baumannii, Table 8, read-out: MBC90 1649. The format is cell-based.
Source text: as §2, §1

Data set [16] relates to A. baumannii 1651. Put plainly: minimal bactericidal concentration (MBC) assay, strain 1651. The format is cell-based. Particulars: Acinetobacter baumannii, Table 8, read-out: MBC90 1651.
Source text: as §2, §1

Data set [17] deals with A. baumannii 1651 biofilm. Briefly: biofilm eradication determination assay, strain 1651. The format is cell-based, Acinetobacter baumannii. Particulars: 90% biofilm eradication, Table 8. The method, then:
as §3

In data set [18] the test system is A. baumannii 1403. Put plainly: minimal bactericidal concentration (MBC) assay, strain 1403. The format is cell-based. Particulars: Acinetobacter baumannii, Table 8, read-out: MBC90 1403.
Source text: as §2, §1

The next data set deals with A. baumannii strain 1403. The format is cell-based, Acinetobacter baumannii. Particulars: serial passage, 8 days, start 0.5× MIC. Here is the method: An important attribute of novel antibiotics is the ability to fend off the development of resistance towards their effects. To assess this capacity, A. baumannii strains were incubated overnight with 0.5× MIC of each of the frontrunners. The next day cells were washed and used to inoculate fresh media that contained a two-fold increase in drug. This was repeated for a total of 8 days, alongside sulfamethoxazole (SMX) and trimethoprim (TMP) controls, both of which target the same pathway as our lead agents (FIG. 2).
In order to test potential resistance towards the quinazolines, a serial passage assay was performed alongside control compounds (Sulfamethoxazole and Trimethoprim), as described by us previously.^24 A. baumannii strain 1403 was grown overnight in LB media at 37° C. The next day cultures were diluted 1:100 in fresh media and seeded into a 96-well plate. Lead quinazolines or control agents were added to respective wells at half MIC concentrations. […] These were then grown overnight, and the procedure repeated for a total of eight days.

Data set [19] has as its system A. baumannii 1650. Briefly: minimal bactericidal concentration (MBC) assay, strain 1650. The format is cell-based. Particulars: Acinetobacter baumannii, Table 8, read-out: MBC90 1650.
Source text: as §2, §1

The subject of data set [20] is A. baumannii 1652 biofilm. Put plainly: biofilm eradication determination assay, strain 1652. The format is cell-based, Acinetobacter baumannii. As to conditions: 90% biofilm eradication, Table 8. The method, then:
as §3

Converted amounts (≈) assume the structure as drawn. Like-named read-outs stand apart in the source and are kept apart here.

Protocol for human red blood cells: A hemolysis assay was performed using whole human blood (Bioreclamation), as described previously.^24 Briefly, human red blood cells (hRBCs) were resuspended in 20% v/v 1×HA buffer (4.25 mL 10% NaCl; 1 mL CaCl2) in 50 mL sterile water), before lead compounds were added at 2 μM, 10 μM and 20 μM, in a final volume of 100 μL. Cells were incubated for 15 minutes at 37° C. before being centrifuged at 5,500 g for 1 minute to pellet non-lysed hRBCs. The supernatant was removed, added to a 96-well Microtiter plate and the OD543 read using a BioTek Synergy2 plate reader. The negative control was vehicle only (DMSO), and the positive control was 1% triton X-100.

As for `CNc1nc(NCc2ccccc2)nc2ccc(C(C)C)cc12` [Compound 25, N^2-Benzyl-6-isopropyl-N^4-methylquinazoline-2,4-diamine], the minimum inhibitory concentration (MIC) in the data set on A. baumannii 1650 [1] (Tables 1, 3, 4, 5 and footnotes, read-out: 1650 MIC) was greater than 50 µM; in the data set with A. baumannii 1649 [2] (Tables 1, 3, 4, 5 and footnotes, read-out: 1649 MIC) it was 35 µM (≈ 10.7 µg/mL); with A. baumannii 1652 [5] (Tables 1, 3, 4, 5 and footnotes, read-out: 1652 MIC) it was greater than 50 µM; with A. baumannii 1651 [6] (Tables 1, 3, 4, 5 and footnotes, read-out: 1651 MIC), 35 µM (≈ 10.7 µg/mL); in the data set with A. baumannii 1403 [7] (Tables 1, 3, 4, 5 and footnotes, read-out: 1403 MIC) it was greater than 50 µM; with A. baumannii 1646 [8] (strain 1646, Tables 1, 3, 4, 5 and footnotes, read-out: 1646 MIC), 25 µM (≈ 7.66 µg/mL). The “THF concentration sufficient to rescue bacterial growth” value in data set [3] stood at 10 µM. In the data set with A. baumannii 1646 [4] (isolate 1646), the “concentration giving complete eradication of bacterial growth” value came out at 5 µM.
Turning to `CN(C)c1cc(NC(=O)CNC(C)(C)C)c(O)c2c1C[C@H]1C[C@H]3[C@H](N(C)C)C(O)=C(C(N)=O)C(=O)[C@@]3(O)C(O)=C1C2=O` [tigecycline, reference compound], in the data set with A. baumannii 1646 [9], the “survival rate of infected animals” value amounted to 66%.
On to `CNc1nc(NCc2ccccc2)nc2ccc(Br)cc12` [Compound 4, N^2-Benzyl-6-bromo-N^4-methylquinazoline-2,4-diamine], for which the MBC amounted to 9.7 µM (≈ 3.33 µg/mL) in the data set with A. baumannii 1652 [10]; 4.7 µM (≈ 1.61 µg/mL) in the data set with A. baumannii 1649 [15]; 2.1 µM (≈ 0.721 µg/mL) in the data set on A. baumannii 1651 [16]; 0.81 µM (≈ 0.278 µg/mL) with A. baumannii 1646 [4] (Acinetobacter baumannii, 1646, strain 1646, Table 8 and text, read-out: MBC90 1646); 0.8 µM (≈ 0.275 µg/mL) in the data set with A. baumannii 1646 [4] (Acinetobacter baumannii, Table 6, representative data for isolate 1646, read-out: MBC90); 22 µM (≈ 7.55 µg/mL) in the data set with A. baumannii 1403 [18]. Besides, the MBC with A. baumannii 1650 [19] turned out to be 15 µM (≈ 5.15 µg/mL). The compound also returned a HepG2 cell viability in the data set on human HepG2 cells (at 25 μM (highest concentration tested)) of 43%. In the data set on human HepG2 cells (human, 48 h), the “LD50(HepG2)” value worked out at 23 µM. Also, the “MBEC90 1650” value in data set [11] amounted to 9.61 µM. Also, the “MBEC90 1403” value in data set [12] amounted to 26 µM. In addition, the minimal inhibitory concentration (MIC) with A. baumannii 1650 [1] (Table 2, read-out: 1650 MIC) is 15 µM (≈ 5.15 µg/mL); with A. baumannii 1650 [1] (lead quinazolines, Table 8, read-out: MIC 1650) it was 12 µM (≈ 4.12 µg/mL); in the data set with A. baumannii 1649 [2] (Table 2, read-out: 1649 MIC), 12 µM (≈ 4.12 µg/mL); in the data set on A. baumannii 1649 [2] (lead quinazolines, Table 8, read-out: MIC 1649) it was 11 µM (≈ 3.78 µg/mL); in the data set on A. baumannii 1652 [5] (Table 2, read-out: 1652 MIC) it was 20 µM (≈ 6.86 µg/mL); with A. baumannii 1652 [5] (lead quinazolines, Table 8, read-out: MIC 1652), 20 µM (≈ 6.86 µg/mL). Further, the MIC in the data set with A. baumannii 1651 [6] (Table 2, read-out: 1651 MIC) was found to be 8 µM (≈ 2.75 µg/mL); with A. baumannii 1651 [6] (lead quinazolines, Table 8, read-out: MIC 1651), 5 µM (≈ 1.72 µg/mL); with A. baumannii 1403 [7] (Table 2, read-out: 1403 MIC), 50 µM (≈ 17.2 µg/mL); in the data set on A. baumannii 1403 [7] (lead quinazolines, Table 8, read-out: MIC 1403), 25 µM (≈ 8.58 µg/mL); in the data set with A. baumannii 1646 [8] (Table 6, representative data for isolate 1646, read-out: MIC) it was 0.5 µM (≈ 0.172 µg/mL); in the data set with A. baumannii 1646 [8] (strain 1646, Table 2, read-out: 1646 MIC) it was 2 µM (≈ 0.686 µg/mL). Besides, the MIC in the data set with A. baumannii 1646 [8] (strain 1646, lead quinazolines, Table 8, read-out: MIC 1646) stood at 0.5 µM (≈ 0.172 µg/mL). The same compound displayed an MBEC90 in data set [13] (Table 6, representative data for isolate 1646) of 3.3 µM. Moreover, the “reduction in biofilm viability” value in [13] (at 50 μM, strain 1646) was 3.6 log. Also, the “MBEC90 1646” value in [13] (strain 1646, 90% biofilm eradication, Table 8 and text) is 3.3 µM. Moreover, in data set [14], the “MBEC90 1649” value turned out to be 44.33 µM. Further, the “MBEC90 1651” value in data set [17] came out at 37.34 µM. For the same compound, in the data set with A. baumannii strain 1403, the “increase in MIC over the 8-day test period” value stood at 4 fold. The “MBEC90 1652” value in data set [20] is greater than 100 µM.
As to Triton X-100, the “lysis of human red blood cells” value in the data set with human red blood cells came to 100%.

In general, MIC refers to the smallest concentration in the dilution series that meets the test's criterion for growth inhibition.

The values above are taken from US10323007B1, “N2N N4-disubstituted quinazoline-2,4-diamines and uses thereof” (University of South Florida, priority 2016, dated 2019).
